Assay results published in PubChem BioAssay (NCI).
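Exposure lasted 48 hours, with cells grown in 96-well plates and compounds tested at five concentrations. GI50: concentration for 50% inhibition of growth. TGI marks complete inhibition of growth.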

Experiments:
Experiment in all cases: inhibition of tumour cell growth, NCI panel, 48 h
UO-31 renal = tested on: UO-31 renal
NCI/ADR-RES ovarian = tested on: NCI/ADR-RES ovarian
MDA-MB-468 breast = tested on: MDA-MB-468 breast
786-0 renal = tested on: 786-0 renal
IGROV1 ovarian = tested on: IGROV1 ovarian
U251 CNS = tested on: U251 CNS
OVCAR-4 ovarian = tested on: OVCAR-4 ovarian
TK-10 renal = tested on: TK-10 renal
HOP-92 NSCLC = tested on: HOP-92 NSCLC
DU-145 prostate = tested on: DU-145 prostate
HS 578T breast = tested on: HS 578T breast
LOX IMVI melanoma = tested on: LOX IMVI melanoma
SK-MEL-5 melanoma = tested on: SK-MEL-5 melanoma
MALME-3M melanoma = tested on: MALME-3M melanoma
OVCAR-3 ovarian = tested on: OVCAR-3 ovarian
SK-MEL-28 melanoma = tested on: SK-MEL-28 melanoma
SNB-75 CNS = tested on: SNB-75 CNS
MDA-MB-435 = tested on: MDA-MB-435
RXF 393 renal = tested on: RXF 393 renal
SN12C renal = tested on: SN12C renal
SK-MEL-2 melanoma = tested on: SK-MEL-2 melanoma
ACHN renal = tested on: ACHN renal
SF-268 CNS = tested on: SF-268 CNS
COLO 205 colon = tested on: COLO 205 colon
SK-OV-3 ovarian = tested on: SK-OV-3 ovarian
CAKI-1 renal = tested on: CAKI-1 renal
SF-295 CNS = tested on: SF-295 CNS
A498 renal = tested on: A498 renal
HOP-62 NSCLC = tested on: HOP-62 NSCLC
HT29 colon = tested on: HT29 colon
HCC-2998 colon = tested on: HCC-2998 colon
HCT-15 colon = tested on: HCT-15 colon
K-562 leukemia = tested on: K-562 leukemia
NCI-H23 lung = tested on: NCI-H23 lung
SF-539 CNS = tested on: SF-539 CNS
HL-60(TB) leukemia = tested on: HL-60(TB) leukemia
A549 NSCLC = tested on: A549 NSCLC
RPMI-8226 leukemia = tested on: RPMI-8226 leukemia
CCRF-CEM leukemia = tested on: CCRF-CEM leukemia
MDA-MB-231 breast = tested on: MDA-MB-231 breast
MOLT-4 leukemia = tested on: MOLT-4 leukemia
NCI-H460 lung = tested on: NCI-H460 lung
EKVX NSCLC = tested on: EKVX NSCLC
BT-549 breast = tested on: BT-549 breast
SNB-19 CNS = tested on: SNB-19 CNS
OVCAR-8 ovarian = tested on: OVCAR-8 ovarian
KM12 colon = tested on: KM12 colon
T-47D breast = tested on: T-47D breast
UACC-257 melanoma = tested on: UACC-257 melanoma
NCI-H522 lung = tested on: NCI-H522 lung
MCF7 breast = tested on: MCF7 breast
HCT-116 colon = tested on: HCT-116 colon
UACC-62 melanoma = tested on: UACC-62 melanoma
M14 melanoma = tested on: M14 melanoma
PC-3 prostate = tested on: PC-3 prostate
OVCAR-5 ovarian = tested on: OVCAR-5 ovarian
NCI-H226 lung = tested on: NCI-H226 lung
SW-620 colon = tested on: SW-620 colon

Work on `Brc1ccc(N/N=C/c2c[nH]c3ccc(Br)cc23)nc1` yielded a GI50 (UO-31 renal) of 0.532 µM, a TGI (UO-31 renal) of 7.55 µM and a GI50 (NCI/ADR-RES ovarian) of 2.79 µM. It also gave a TGI (NCI/ADR-RES ovarian) of 12.4 µM, a GI50 (MDA-MB-468 breast) of 1.61 µM and a TGI (MDA-MB-468 breast) of 4.2 µM. For the same molecule, the GI50 (786-0 renal) was 2.5 µM, the TGI (786-0 renal) was 8.24 µM and the GI50 (IGROV1 ovarian) was 0.251 µM. It also gave a TGI (IGROV1 ovarian) of 1.89 µM, a GI50 (U251 CNS) of 2.54 µM and a TGI (U251 CNS) of 10.5 µM. The GI50 (OVCAR-4 ovarian) was 4.07 µM, the TGI (OVCAR-4 ovarian) was 17.8 µM and the GI50 (TK-10 renal) was 5.85 µM. The TGI (TK-10 renal) was 15.1 µM, the GI50 (HOP-92 NSCLC) was 1.51 µM and the TGI (HOP-92 NSCLC) was 4.27 µM. The GI50 (DU-145 prostate) was 4.55 µM, the TGI (DU-145 prostate) was 16 µM and the GI50 (HS 578T breast) was 2.13 µM. It also gave a TGI (HS 578T breast) of 8.29 µM, a GI50 (LOX IMVI melanoma) of 1.11 µM and a TGI (LOX IMVI melanoma) of 2.49 µM. It also gave a GI50 (SK-MEL-5 melanoma) of 2.56 µM, a TGI (SK-MEL-5 melanoma) of 8.54 µM and a GI50 (MALME-3M melanoma) of 3.26 µM. For the same molecule, the TGI (MALME-3M melanoma) was 15.3 µM, the GI50 (OVCAR-3 ovarian) was 2.69 µM and the TGI (OVCAR-3 ovarian) was 9.13 µM. For the same molecule, the GI50 (SK-MEL-28 melanoma) was 3.58 µM, the TGI (SK-MEL-28 melanoma) was 13.2 µM and the GI50 (SNB-75 CNS) was 0.568 µM. For the same molecule, the TGI (SNB-75 CNS) was 6.01 µM, the GI50 (MDA-MB-435) was 3.45 µM and the TGI (MDA-MB-435) was 14.1 µM. The GI50 (RXF 393 renal) was 1.85 µM, the TGI (RXF 393 renal) was 5.64 µM and the GI50 (SN12C renal) was 1.05 µM. For the same molecule, the TGI (SN12C renal) was 9.73 µM, the GI50 (SK-MEL-2 melanoma) was 2.92 µM and the TGI (SK-MEL-2 melanoma) was 11.9 µM. It also gave a GI50 (ACHN renal) of 2.66 µM, a TGI (ACHN renal) of 10.5 µM and a GI50 (SF-268 CNS) of 1.84 µM. It also gave a TGI (SF-268 CNS) of 13.9 µM, a GI50 (COLO 205 colon) of 2.07 µM and a TGI (COLO 205 colon) of 5 µM. The GI50 (SK-OV-3 ovarian) was 2.71 µM, the TGI (SK-OV-3 ovarian) was 13.7 µM and the GI50 (CAKI-1 renal) was 1.6 µM. The TGI (CAKI-1 renal) was 9.87 µM, the GI50 (SF-295 CNS) was 1.74 µM and the TGI (SF-295 CNS) was 3.56 µM. It also gave a GI50 (A498 renal) of 4.03 µM, a TGI (A498 renal) of 13.3 µM and a GI50 (HOP-62 NSCLC) of 3.14 µM. For the same molecule, the TGI (HOP-62 NSCLC) was 13 µM, the GI50 (HT29 colon) was 2.39 µM and the TGI (HT29 colon) was 5.32 µM. The GI50 (HCC-2998 colon) was 1.74 µM, the TGI (HCC-2998 colon) was 3.55 µM and the GI50 (HCT-15 colon) was 1.8 µM. The TGI (HCT-15 colon) was 4.25 µM, the GI50 (K-562 leukemia) was 2.73 µM and the TGI (K-562 leukemia) was greater than 100 µM. For the same molecule, the GI50 (NCI-H23 lung) was 2.14 µM, the TGI (NCI-H23 lung) was 8.21 µM and the GI50 (SF-539 CNS) was 0.795 µM. The TGI (SF-539 CNS) was 8.06 µM, the GI50 (HL-60(TB) leukemia) was 1.7 µM and the TGI (HL-60(TB) leukemia) was 18.7 µM. For the same molecule, the GI50 (A549 NSCLC) was 3.26 µM, the TGI (A549 NSCLC) was 12.7 µM and the GI50 (RPMI-8226 leukemia) was 1.47 µM. It also gave a TGI (RPMI-8226 leukemia) of 8.12 µM, a GI50 (CCRF-CEM leukemia) of 1.27 µM and a TGI (CCRF-CEM leukemia) greater than 100 µM. The GI50 (MDA-MB-231 breast) was 1.44 µM, the TGI (MDA-MB-231 breast) was 3.64 µM and the GI50 (MOLT-4 leukemia) was 0.644 µM. For the same molecule, the TGI (MOLT-4 leukemia) was 18.5 µM, the GI50 (NCI-H460 lung) was 2.7 µM and the TGI (NCI-H460 lung) was 8.64 µM. The GI50 (EKVX NSCLC) was 1.74 µM, the TGI (EKVX NSCLC) was 10.9 µM and the GI50 (BT-549 breast) was 0.259 µM. The TGI (BT-549 breast) was 5.39 µM, the GI50 (SNB-19 CNS) was 3.09 µM and the TGI (SNB-19 CNS) was 12.4 µM. For the same molecule, the GI50 (OVCAR-8 ovarian) was 2.96 µM, the TGI (OVCAR-8 ovarian) was 17 µM and the GI50 (KM12 colon) was 1.67 µM. It also gave a TGI (KM12 colon) of 5.88 µM, a GI50 (T-47D breast) of 1.97 µM and a TGI (T-47D breast) of 12 µM. The GI50 (UACC-257 melanoma) was 3.47 µM, the TGI (UACC-257 melanoma) was 15.3 µM and the GI50 (NCI-H522 lung) was 1.6 µM. It also gave a TGI (NCI-H522 lung) of 5.54 µM, a GI50 (MCF7 breast) of 1.59 µM and a TGI (MCF7 breast) of 7.85 µM. For the same molecule, the GI50 (HCT-116 colon) was 2.68 µM, the TGI (HCT-116 colon) was 10.6 µM and the GI50 (UACC-62 melanoma) was 0.862 µM. For the same molecule, the TGI (UACC-62 melanoma) was 10.9 µM, the GI50 (M14 melanoma) was 2.03 µM and the TGI (M14 melanoma) was 5.31 µM. For the same molecule, the GI50 (PC-3 prostate) was 0.851 µM, the TGI (PC-3 prostate) was 10.1 µM and the GI50 (OVCAR-5 ovarian) was 2.32 µM. For the same molecule, the TGI (OVCAR-5 ovarian) was 9.51 µM, the GI50 (NCI-H226 lung) was 0.674 µM and the TGI (NCI-H226 lung) was 10.3 µM. The GI50 (SW-620 colon) was 2.85 µM and the TGI (SW-620 colon) was 11.7 µM.

With `CN1CCc2c(sc3ncnc(N/N=C/c4cn(-c5ccccc5)nc4-c4ccc(Br)cc4)c23)C1` the GI50 (IGROV1 ovarian) was 0.322 µM, the TGI (IGROV1 ovarian) was greater than 100 µM and the GI50 (U251 CNS) was 0.636 µM. It also gave a TGI (U251 CNS) greater than 100 µM, a GI50 (TK-10 renal) greater than 100 µM and a TGI (TK-10 renal) greater than 100 µM. The GI50 (DU-145 prostate) was greater than 100 µM, the TGI (DU-145 prostate) was greater than 100 µM and the GI50 (HS 578T breast) was 16.4 µM. For the same molecule, the TGI (HS 578T breast) was greater than 100 µM, the GI50 (OVCAR-3 ovarian) was 0.0375 µM and the TGI (OVCAR-3 ovarian) was 0.304 µM. For the same molecule, the GI50 (SK-MEL-28 melanoma) was greater than 100 µM, the TGI (SK-MEL-28 melanoma) was greater than 100 µM and the GI50 (SNB-75 CNS) was 5.88 µM. It also gave a TGI (SNB-75 CNS) greater than 100 µM, a GI50 (MDA-MB-435) greater than 100 µM and a TGI (MDA-MB-435) greater than 100 µM. It also gave a GI50 (RXF 393 renal) of 18.3 µM, a TGI (RXF 393 renal) greater than 80.7 µM and a GI50 (COLO 205 colon) of 0.332 µM. It also gave a TGI (COLO 205 colon) greater than 100 µM, a GI50 (SK-OV-3 ovarian) greater than 100 µM and a TGI (SK-OV-3 ovarian) greater than 100 µM. It also gave a GI50 (CAKI-1 renal) greater than 100 µM, a TGI (CAKI-1 renal) greater than 100 µM and a GI50 (A498 renal) greater than 100 µM. It also gave a TGI (A498 renal) greater than 100 µM, a GI50 (HOP-62 NSCLC) of 0.399 µM and a TGI (HOP-62 NSCLC) greater than 100 µM. The GI50 (HCC-2998 colon) was 0.285 µM, the TGI (HCC-2998 colon) was greater than 100 µM and the GI50 (SF-539 CNS) was 0.282 µM. For the same molecule, the TGI (SF-539 CNS) was greater than 100 µM, the GI50 (CCRF-CEM leukemia) was 0.196 µM and the TGI (CCRF-CEM leukemia) was greater than 100 µM. It also gave a GI50 (MDA-MB-231 breast) of 0.362 µM, a TGI (MDA-MB-231 breast) greater than 100 µM and a GI50 (MOLT-4 leukemia) of 0.261 µM. For the same molecule, the TGI (MOLT-4 leukemia) was greater than 100 µM, the GI50 (BT-549 breast) was greater than 100 µM and the TGI (BT-549 breast) was greater than 100 µM. It also gave a GI50 (SNB-19 CNS) of 20.3 µM, a TGI (SNB-19 CNS) greater than 100 µM and a GI50 (HCT-116 colon) of 0.102 µM. It also gave a TGI (HCT-116 colon) greater than 100 µM, a GI50 (OVCAR-5 ovarian) greater than 100 µM and a TGI (OVCAR-5 ovarian) greater than 100 µM. The GI50 (NCI-H226 lung) was greater than 100 µM, the TGI (NCI-H226 lung) was greater than 100 µM and the GI50 (SW-620 colon) was 0.352 µM. It also gave a TGI (SW-620 colon) greater than 100 µM.
